Laboratory results from a melting point compilation (Tetko et al.; mined from patent text by program, amines drawn as free bases though some values may be those of a salt).

| melting point | SMILES |
| --- | --- |
| 127 to 128 °C | CS(=O)(=O)c1ccc(C2=C(Br)C(=O)C3(CCCC3)O2)cc1 |
| 243 °C | Cc1cc(-c2cc(C(F)(F)F)n3ncc(C(=O)O)c3n2)ccc1Cl |
| 165 to 166 °C | CC(=O)NC1C(OCc2ccccc2)OC(COCc2ccccc2)C(OCc2ccccc2)C1OCC(O)CO (centres undefined) |
| > 220 °C | O=S1(=O)N=C(NOCc2ccccc2)Nc2ccc(Cl)cc21 |
| 139 to 141 °C | CC(C)N(C[C@@H]1CCC[C@H](CN(C(=O)Nc2ccc(N(C)C)cc2)C(C)C)C1)C(=O)Nc1ccc(N(C)C)cc1 |
| 140 to 141 °C | CCOC(=O)n1cc(C=O)c(-c2ccc([N+](=O)[O-])o2)n1 |
| 68 to 70 °C | CCCCCCCCCCCCCCCCCCOc1cc(OCCCCC(=O)OC)cc(C(=O)O)c1 |
| 156 to 162 °C | O=C(NCCc1ccc(O)c(O)c1)c1cccnc1 |
| 80 to 82 °C | O=C(CC(Cc1cccc2ccccc12)C(=O)N1C(=O)OCC1Cc1ccccc1)N1CCOCC1 (centres undefined) |
| 117 to 119 °C | COc1cc(OC(C)C)ccc1-c1c(OC(C)C)cccc1C(=O)O |
| 177 to 178 °C | NC(=O)NC1CCC(Cl)CC1 (centres undefined) |
| 199 to 201 °C | CC1=C(/C=C/S(=O)(=O)NC(C)C)C(c2cc([N+](=O)[O-])ccc2Cl)C(C(=O)OC(C)C)=C(C)N1 (centres undefined) |
| 152 to 154 °C | O=C(O)COc1ccc(NC(=O)OCc2ccccc2)cc1 |
| 134 °C | O=C1N(CO)OCCN1c1ccc(Cl)c(Cl)c1 |
| 264 to 266 °C | CCOC(=O)c1ncc2[nH]c3ccc(I)cc3c2n1 |
| 258 to 259 °C | Cc1cc2c(C(=O)C3=C(O)C4CCC(C4)C3=O)ccc(S(C)(=O)=O)c2o1 (centres undefined) |
| 154 to 156 °C | CC(C)CC(Sc1ccccc1)c1c(O)cc(-c2ccccc2)oc1=O (centres undefined) |
| 106 to 110 °C | Clc1ccc(C(=Cc2ccccc2Cl)Cn2cncn2)cc1 |
| 294 °C | CC(C)(C)c1ccc(-c2cc3ccc(C(=O)O)cc3o2)cc1 |

| melting point | SMILES |
| --- | --- |
| 116 to 117 °C | O=C1NC(=O)C(CC#Cc2ccc(Cl)cc2)(Sc2ccc(F)cc2)S1 (centres undefined) |
| 205 to 206 °C | CCC1(CC(=NNc2ccc([N+](=O)[O-])cc2[N+](=O)[O-])C(=O)OC)CCCN2CCc3c([nH]c4ccccc34)C21 (centres undefined) |
| 85 to 88 °C | O=C(O)C(Cc1ccccc1)Oc1ccc(-c2ccc(-c3c(Cc4ccccc4)oc4cccnc34)cc2)cc1 (centres undefined) |
| 180 to 181 °C | COC(=O)c1ccc2[nH]c3ccccc3c2c1 |
| 174 to 175 °C | CN(C)Cc1ccc(C(=O)CCC(=O)N2CCN(c3ccc(N4C[C@H](CNC(=S)C5CC5)OC4=O)cc3F)CC2)cc1 |
| 181 to 186 °C | COC(=O)c1ccccc1S(=O)(=O)NC(=O)Nc1nc(C)cc(CF)n1 |
| 63 to 65 °C | CC(C)(Oc1ccc(F)cc1Cl)C(=O)O |
| 160 to 161 °C | CSc1cc(C)nc(SC)c1NC(=O)CN1CCN(CCCSc2nc3ccccc3o2)CC1 |
| 190 to 192 °C | CCOC(=O)C=Cc1cnc(Nc2ccccc2)nc1N |
| 123 to 125 °C | CCc1ccc(OCCCN2CCN(c3ccc(Cl)nn3)CC2)cc1 |
| 146 to 148 °C | CCn1nc(-c2ccc3cc(O)ccc3c2)c2ccc(O)cc21 |
| 125 to 127 °C | CNS(=O)(=O)CC(=O)c1cc(OC)c(OC)c(OC)c1N |
| 206 °C | CNC(=O)C=C(C)C=CC=C(C)C=Cc1c(C)cc(OC)c(C)c1C |
| 182 °C | Cn1nnc2c(N3CCOCC3)nc(-c3ccc(NC(=O)Nc4cccs4)cc3)nc21 |
| 296 to 299 °C | CCN1C(=O)C(C)(C)C(=O)N(C)c2cc(C(=O)O)ccc21 |
| 198 to 201 °C | CCCCn1c(=O)[nH]c2cc(Cl)cc(Cl)c2c1=O |
| 252 to 253 °C | Cn1ncc(/C=C/C(=O)Nc2ccc(Cc3nnn[nH]3)cc2)c1-c1ccc(F)cc1 |
| 115 to 117 °C | CCOC(=O)CC(CC(=O)Nc1ccc(Cl)c(C=C(Cl)C(=O)OCC)c1)C(F)(F)F (centres undefined) |

| SMILES | melting point |
| --- | --- |
| CN1CCC(=O)C(C(c2ccccc2)c2ccccc2)C1 (centres undefined) | 127 to 128 °C |
| O=C(c1ccco1)N1CCN[C@@H]2CCCC[C@@H]21 | 47 to 50 °C |
